Assay results as given in article PMC12289921 (Nature Communications, 2025).

Molecular target: PPIL4 with GFP-CRBN-DDB1∆B (Homo sapiens, UniProt Q8WUA2+Q96SW2)
Experiment: TR-FRET ternary complex formation
Assay type: binding

Sequence of PPIL4 with GFP-CRBN-DDB1∆B (Q96SW2 whole entry): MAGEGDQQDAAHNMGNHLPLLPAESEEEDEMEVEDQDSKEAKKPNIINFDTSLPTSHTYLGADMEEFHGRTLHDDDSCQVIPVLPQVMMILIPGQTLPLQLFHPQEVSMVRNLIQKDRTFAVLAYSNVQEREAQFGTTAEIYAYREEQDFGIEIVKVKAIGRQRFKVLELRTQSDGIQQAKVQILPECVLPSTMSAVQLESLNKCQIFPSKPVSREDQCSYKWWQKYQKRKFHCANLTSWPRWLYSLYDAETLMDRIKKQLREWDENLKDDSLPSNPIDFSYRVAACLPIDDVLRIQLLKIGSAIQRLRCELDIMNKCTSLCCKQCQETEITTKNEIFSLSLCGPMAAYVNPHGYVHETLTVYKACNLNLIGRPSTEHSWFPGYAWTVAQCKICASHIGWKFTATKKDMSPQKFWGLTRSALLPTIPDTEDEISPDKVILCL
Sequence of PPIL4 with GFP-CRBN-DDB1∆B (Q8WUA2 whole entry): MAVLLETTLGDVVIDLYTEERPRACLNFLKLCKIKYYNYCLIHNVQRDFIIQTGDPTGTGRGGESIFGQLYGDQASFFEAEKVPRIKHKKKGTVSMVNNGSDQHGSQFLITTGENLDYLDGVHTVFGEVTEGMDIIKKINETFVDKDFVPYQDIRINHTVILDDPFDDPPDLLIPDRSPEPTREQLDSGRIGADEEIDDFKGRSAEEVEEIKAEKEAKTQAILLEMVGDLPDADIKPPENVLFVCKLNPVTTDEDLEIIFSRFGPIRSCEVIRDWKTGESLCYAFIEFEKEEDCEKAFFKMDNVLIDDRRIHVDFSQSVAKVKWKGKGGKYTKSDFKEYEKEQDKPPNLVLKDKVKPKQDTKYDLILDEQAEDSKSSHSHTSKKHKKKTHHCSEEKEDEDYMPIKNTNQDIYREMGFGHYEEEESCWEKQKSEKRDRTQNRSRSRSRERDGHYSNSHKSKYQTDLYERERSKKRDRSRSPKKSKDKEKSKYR
Sequence of PPIL4 with GFP-CRBN-DDB1∆B (Q16531 1-395 partner): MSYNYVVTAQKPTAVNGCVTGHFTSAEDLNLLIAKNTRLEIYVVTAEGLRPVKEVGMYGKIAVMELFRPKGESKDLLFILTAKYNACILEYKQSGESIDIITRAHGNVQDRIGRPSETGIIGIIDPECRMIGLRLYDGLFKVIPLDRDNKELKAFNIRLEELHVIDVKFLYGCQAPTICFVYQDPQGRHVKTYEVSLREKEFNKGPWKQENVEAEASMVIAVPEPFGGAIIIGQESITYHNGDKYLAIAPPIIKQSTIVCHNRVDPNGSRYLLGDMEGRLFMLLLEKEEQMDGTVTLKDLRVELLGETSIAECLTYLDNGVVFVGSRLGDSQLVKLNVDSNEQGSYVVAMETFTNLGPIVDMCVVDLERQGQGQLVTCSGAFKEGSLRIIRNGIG
Sequence of PPIL4 with GFP-CRBN-DDB1∆B (Q16531 706-1140 partner): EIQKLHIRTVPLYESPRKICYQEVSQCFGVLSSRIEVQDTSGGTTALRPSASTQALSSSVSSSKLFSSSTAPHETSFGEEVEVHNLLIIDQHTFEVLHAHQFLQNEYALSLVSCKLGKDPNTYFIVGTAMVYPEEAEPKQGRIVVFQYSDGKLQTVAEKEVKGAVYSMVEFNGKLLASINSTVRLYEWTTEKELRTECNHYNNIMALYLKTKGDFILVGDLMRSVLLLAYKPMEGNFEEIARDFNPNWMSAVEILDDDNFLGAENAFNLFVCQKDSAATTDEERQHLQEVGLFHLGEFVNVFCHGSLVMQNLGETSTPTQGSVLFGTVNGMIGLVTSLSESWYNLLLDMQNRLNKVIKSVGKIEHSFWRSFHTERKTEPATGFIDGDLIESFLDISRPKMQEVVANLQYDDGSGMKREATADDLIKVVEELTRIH

## COc1cscc1-c1cn([C@H]2CCC(=O)NC2=O)nn1 [FPFT-2216]
  EC50: 1050 nM
